Molecular target: T1, hTAS1R1 E301A/rTAS1R3 (UniProt Q7RTX1+Q923K1, E301A)
T1 construct: UniProtKB number Q7RTX1–1); The cDNA coding region of rTAS1R3 was synthesized with optimized-codon usage for human expression; expressed in transfected cells; host or cells: HEK293T/17
T1 sequence (Q7RTX1 21-841 E301A): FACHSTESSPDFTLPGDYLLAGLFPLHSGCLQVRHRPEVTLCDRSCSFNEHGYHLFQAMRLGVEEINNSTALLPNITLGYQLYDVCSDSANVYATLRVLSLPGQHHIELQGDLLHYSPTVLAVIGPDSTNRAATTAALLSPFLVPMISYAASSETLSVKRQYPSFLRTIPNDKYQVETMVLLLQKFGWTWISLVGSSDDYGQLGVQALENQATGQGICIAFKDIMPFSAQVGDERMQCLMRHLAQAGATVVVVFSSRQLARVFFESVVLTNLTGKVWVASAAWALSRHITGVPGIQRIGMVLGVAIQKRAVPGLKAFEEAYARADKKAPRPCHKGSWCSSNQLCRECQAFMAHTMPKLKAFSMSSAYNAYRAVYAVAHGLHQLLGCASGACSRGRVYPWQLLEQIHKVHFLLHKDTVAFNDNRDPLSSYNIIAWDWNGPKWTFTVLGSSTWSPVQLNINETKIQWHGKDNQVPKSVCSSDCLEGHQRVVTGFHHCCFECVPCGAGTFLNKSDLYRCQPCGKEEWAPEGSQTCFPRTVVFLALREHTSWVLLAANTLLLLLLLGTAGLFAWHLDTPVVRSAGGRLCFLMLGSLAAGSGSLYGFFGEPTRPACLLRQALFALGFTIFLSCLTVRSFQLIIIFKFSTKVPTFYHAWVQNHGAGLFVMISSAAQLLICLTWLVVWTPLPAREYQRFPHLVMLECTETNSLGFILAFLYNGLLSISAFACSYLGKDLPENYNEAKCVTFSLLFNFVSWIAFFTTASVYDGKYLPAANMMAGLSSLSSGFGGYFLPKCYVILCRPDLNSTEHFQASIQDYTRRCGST
T1 sequence (Q923K1 21-858): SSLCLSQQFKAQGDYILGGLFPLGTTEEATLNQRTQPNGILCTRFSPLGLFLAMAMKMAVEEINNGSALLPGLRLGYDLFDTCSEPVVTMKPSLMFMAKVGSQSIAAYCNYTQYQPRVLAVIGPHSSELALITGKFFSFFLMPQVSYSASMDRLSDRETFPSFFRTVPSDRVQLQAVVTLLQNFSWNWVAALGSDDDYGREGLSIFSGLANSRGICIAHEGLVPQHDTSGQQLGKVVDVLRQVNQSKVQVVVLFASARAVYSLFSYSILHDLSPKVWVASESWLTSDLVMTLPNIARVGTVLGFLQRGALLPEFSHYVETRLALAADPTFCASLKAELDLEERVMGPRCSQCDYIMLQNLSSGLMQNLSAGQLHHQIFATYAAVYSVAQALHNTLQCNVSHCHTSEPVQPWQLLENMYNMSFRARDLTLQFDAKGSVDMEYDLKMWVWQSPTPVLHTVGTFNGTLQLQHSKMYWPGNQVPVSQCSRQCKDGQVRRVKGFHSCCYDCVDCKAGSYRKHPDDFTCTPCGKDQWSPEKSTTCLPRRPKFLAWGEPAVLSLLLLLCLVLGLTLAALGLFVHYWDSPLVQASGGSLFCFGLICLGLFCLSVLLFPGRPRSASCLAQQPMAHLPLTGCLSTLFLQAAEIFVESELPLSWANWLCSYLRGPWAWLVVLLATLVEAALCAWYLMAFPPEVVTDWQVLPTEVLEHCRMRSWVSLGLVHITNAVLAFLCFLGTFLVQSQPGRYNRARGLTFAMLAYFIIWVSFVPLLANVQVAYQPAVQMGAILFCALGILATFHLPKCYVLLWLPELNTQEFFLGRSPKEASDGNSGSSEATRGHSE
Assay: cell-based
Format: cell-based, human, rat
Details: for response to the agonist alone, vs WT: E301A
From the text: Chimeric Gα proteins, such as Gα16Gust44, Gα16Gi3 or Gα15i2, are widely used in the functional expression of TAS1R receptors ([Backes et al., 2015]; [Suess et al., 2015]; [Toda et al., 2021], [Toda et al., 2013], [Toda et al., 2018]; [Zhang et al., 2008]). Chimeric Gα15i2 (([Toda et al., 2013]), Supplementary data) was generated by replacing the last five residues of the C-terminal tail of rat Gα15i2 (EINLL) (UniProt number G3V6N8; https://www.uniprot.org/uniprot/) with the counterpart sequence from human GNAI2 (DCGLF) (UniProt number P04899-1) and cloning into the pcDNA3.1/Hygro vector (Invitrogen, Thermo Fisher Scientific, Illkirch, France) between the HindIII and NotI restriction sites, resulting in the plasmid pcDNA3.1-Gα15i2. Chimeric Gα16Gust44 construct have already been reported ([Raliou et al., 2011]). Briefly, Gα16Gust44 was generated by replacing the C-terminal of Gα16 with the C-terminal 44 residues of gustducin. As previously described, hTAS1R1 was amplified from human fungiform papillae cDNA and cloned and inserted into pcDNA3 (Invitrogen), generating pcDNA3-TAS1R1-WT (wild-type) ([Raliou et al., 2011]). […] The cDNA coding region of rTAS1R3 was synthesized with optimized-codon usage for human expression (Genewiz) and was cloned and inserted into the mammalian pcDNA4/myc-HisA (Invitrogen) expression vector between the EcoRI and NotI restriction sites, resulting in the plasmid pcDNA4-rTAS1R3. […] The sequence integrity of all the plasmid constructs was verified via automated DNA sequencing (Genewiz).
The hTAS1R1 mutants were co-expressed with the rTAS1R3 subunit in HEK293 cells. […] As a control, the functionality of the mutated receptors was checked after stimulation with S807 (Fig. S8), which interacts with TAS1R1-TMD ([Zhang et al., 2008]).

Row | SMILES | EC50 [mM] | response to the agonist alone, vs WT
1 | N[C@@H](CCC(=O)N[C@@H](CS)C(=O)NCC(=O)O)C(=O)O [GSH, γ-L-glutamyl-L-cysteinyl-glycine] | > 30 | fully abolished
2 | N[C@@H](CCC(=O)O)C(=O)O [L-Glu, L-glutamic acid, reference compound] | – | completely suppressed

From PMC12615753, “Glutathione as a taste modulator: molecular mechanisms of interaction with umami and sweet taste receptors” (Food Chemistry: Molecular Sciences, 2025)
